Measurements from patent US10266577B2, “GLP-1 derivatives, and uses thereof” (Novo Nordisk A/S, priority 2013, dated 2019).
Numbered stars: 1 amine (or outer) side, 2 acyl side, 3 side chain; on linkers, the order of the positions; unused ones are H or OH. Square brackets hold non-standard residues; d marks the D form. Side chains are listed from the residue outwards. Peptide text beside a SMILES is read from it. * marks the point of attachment. C18 diacid = O=C(O)CCCCCCCCCCCCCCCCC(=O)*; γGlu = O=C(O)[C@H](CCC(=O)[*:2])N[*:1]; εLys = N[C@@H](CCCCN[*:1])C(=O)[*:2]; AEEA = NCCOCCOCC(=O)O; Aib = CC(C)(N)C(=O)O

How the values were obtained:
human GLP-1 receptor = biological target: T1, human GLP-1 receptor (Homo sapiens, UniProt P43220); test: GLP-1 receptor binding: competitive binding assay (125I-GLP-1, SPA) on isolated membranes at low and high HSA; details: high serum albumin (2.0% HSA final assay concentration); displacement of 125I-GLP-1
T1 construct: expressed in transfected cells; host or cells: BHK cells (parent line BHKTS13), clone FCW467-12A; membrane preparation
Protocol: The purpose of this example is to test the receptor binding of the GLP-1 derivatives in vitro. The receptor binding is a measure of affinity of a derivative for the human GLP-1 receptor.
In this type of assay a labelled ligand (in this case ^125I-GLP-1) is bound to the receptor. Each derivative is added in a series of concentrations to isolated membranes containing the human GLP-1 receptor and displacement of the labelled ligand is monitored. The receptor binding is reported as the concentration at which half of the labelled ligand is displaced from the receptor, the IC50 value.
The following chemicals were used in the assay: Human serum albumin (HSA) (Sigma A1653), DMEM w/o phenol red (Gibco 11880-028), Pen/strep (Invitrogen 15140-122), G418 (Invitrogen 10131-027), 1 M Hepes (Gibco 15630), EDTA (Invitrogen 15575-038), PBS (Invitrogen 14190-094), fetal calf serum (Invitrogen 16140-071), EGTA, MgCl2 (Merck 1.05832.1000), Tween 20 (Amresco 0850C335), SPA particles (wheat germ agglutinin (WGA) SPA beads, Perkin Elmer RPNQ0001), [^125I]-GLP-1]-(7-36)NH2 (produced in-house), OptiPlate™-96 (Packard 6005290).
Buffer 1 consisted of 20 mM Na-HEPES plus 10 mM EDTA and pH was adjusted to 7.4. Buffer 2 consisted of 20 mM Na-HEPES plus 0.1 mM EDTA and pH was adjusted to 7.4. Assay buffer consisted of 50 mM HEPES supplemented with 5 mM EGTA, 5 mM MgCl2, 0.005% Tween 20 and pH was adjusted to 7.4. An 8% albumin stock consisted of HSA dissolved at 8% (w/v) in assay buffer. An 0.02% albumin stock consisted of HSA dissolved at 0.02% (w/v) in assay buffer.
The cells express the human GLP-1 receptor.
The cells were grown at 5% CO2 in DMEM, 10% fetal calf serum, 1% Pen/Strep (Penicillin/Streptomycin) and 1.0 mg/ml of the selection marker G418.
To make a membrane preparation the cells were grown to approximately 80% confluence. The cells were washed twice in phosphate-buffered saline and harvested. The cells were pelleted using a brief centrifugation and the cell pellet was kept on ice. The cell pellet was homogenised with ULTRA-THURRAX™ dispersing instrument for 20-30 seconds in a suitable amount of buffer 1 (e.g., 10 ml). The homogenate was centrifuged for 15 minutes. The pellet was re-suspended (homogenised) in 10 ml buffer 2 and centrifuged. This step was repeated once more. The resulting pellet was re-suspended in buffer 2 and the protein concentration was determined. The membranes were aliquoted and stored at minus 80° C.
For the receptor binding assay in the presence of low HSA (0.005%) 50 μl of the assay buffer was added to each well of an assay plate. Assay continued with step 3.
For the receptor binding assay in the presence of high HSA (2%) 50 μl of the 8% albumin stock was added to each well of an assay plate. Assay continued with step 3.
Cell membrane aliquots were thawed and diluted to their working concentration. Fifty μl were added to each well in the assay plate.
WGA SPA beads were suspended in assay buffer at 20 mg/ml. The suspension was diluted to 10 mg/ml in assay buffer just prior to addition to the assay plate. Fifty μl were added to each well in the assay plate.
The incubation was started by adding 25 μl of 480 pM solution of [^125I]-GLP-1]-(7-36)NH2 to each well of the assay plate. A 25 μl aliquot was reserved for measuring total counts/well.
The assay plate was incubated for 2 h at 30° C.
The assay plate was centrifuged for 10 min.
The assay plate was read in a Packard TopCount NXT instrument.
The data from the TopCount instrument were transferred to GraphPad Prism software. The software averaged the values for the replicates and performed a non-linear regression. IC50 values were calculated by the software and reported in nM.

in vivo = details: male, Göttingen, minipig, iv
Protocol: The purpose of this study is to determine the protraction in vivo of the GLP-1 derivatives after i.v. administration to minipigs, i.e. the prolongation of their time in the body and thereby their time of action. This is done in a pharmacokinetic (PK) study, where the terminal half-life of the derivative in question is determined. By terminal half-life is meant the time it takes to halve a certain plasma concentration in the terminal elimination phase.
Male Göttingen minipigs were obtained from Ellegaard Göttingen Minipigs (Dalmose, Denmark) approximately 7-14 months of age and weighing approximately 16-35 kg were used in the studies. The minipigs were housed either individually (pigs with permanent catheters) or in a group and fed restrictedly once or twice daily with SDS minipig diet (Special Diets Services, Essex, UK).
After at least 2 weeks of acclimatisation two permanent central venous catheters were implanted in vena cava caudalis or cranialis in each animal. The animals were allowed 1 week recovery after the surgery, and were then used for repeated pharmacokinetic studies with a suitable wash-out period between successive GLP-1 derivative dosings.
Blood samples (for example 0.8 ml) were collected in EDTA buffer (8 mM) and then centrifuged at 4° C. and 1942G for 10 minutes.
Plasma was pipetted into Micronic tubes on dry ice, and kept at −20° C. until analysed for plasma concentration of the respective GLP-1 compound using LOCI. Individual plasma concentration-time profiles were analyzed by a non-compartmental pharmacokinetic method in Phoenix v. 6.2 (Pharsight Inc., Mountain View, Calif., USA), or other relevant software for PK analysis, and the resulting terminal half-lives (harmonic mean) determined.

T1 sequence (P43220 24-463): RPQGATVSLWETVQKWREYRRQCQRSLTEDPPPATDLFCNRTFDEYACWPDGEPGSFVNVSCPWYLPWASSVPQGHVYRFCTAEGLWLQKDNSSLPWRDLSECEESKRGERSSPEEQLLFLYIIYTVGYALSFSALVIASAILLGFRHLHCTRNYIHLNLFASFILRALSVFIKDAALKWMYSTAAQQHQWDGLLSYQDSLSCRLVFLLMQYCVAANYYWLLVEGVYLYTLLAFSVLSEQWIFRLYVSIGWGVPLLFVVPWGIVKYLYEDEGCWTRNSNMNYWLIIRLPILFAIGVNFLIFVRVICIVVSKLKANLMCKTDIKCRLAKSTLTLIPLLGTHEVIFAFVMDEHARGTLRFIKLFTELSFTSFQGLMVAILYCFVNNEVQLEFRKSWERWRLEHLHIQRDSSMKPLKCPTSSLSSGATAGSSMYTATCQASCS

IC50 (human GLP-1 receptor) [µM]	half-life (in vivo) [h]	Structure (SMILES)
> 1	–	CC[C@H](C)[C@H](NC(=O)[C@H](Cc1ccccc1)NC(=O)[C@H](CCCCNC(=O)COCCOCCNC(=O)COCCOCCNC(=O)CC[C@H](NC(=O)CCCCCCCCCCCCCCCCC(=O)O)C(=O)O)NC(=O)[C@H](CCCNC(=N)N)NC(=O)[C@H](C)NC(=O)[C@H](C)NC(=O)[C@H](CCC(N)=O)NC(=O)[C@H](CCC(=O)O)NC(=O)[C@H](CCC(=O)O)NC(=O)[C@H](CC(C)C)NC(=O)[C@H](Cc1ccc(O)cc1)NC(=O)[C@H](CCCCNC(=O)COCCOCCNC(=O)COCCOCCNC(=O)CC[C@H](NC(=O)CCCCCCCCCCCCCCCCC(=O)O)C(=O)O)NC(=O)[C@H](CO)NC(=O)[C@@H](NC(=O)[C@H](CC(=O)O)NC(=O)[C@H](CO)NC(=O)[C@@H](NC(=O)[C@H](Cc1ccccc1)NC(=O)[C@@H](NC(=O)CNC(=O)[C@H](CCC(=O)O)NC(=O)C(C)(C)NC(=O)[C@@H](N)Cc1c[nH]cn1)[C@@H](C)O)[C@@H](C)O)C(C)C)C(=O)N[C@@H](C)C(=O)N[C@@H](Cc1c[nH]c2ccccc12)C(=O)N[C@@H](CC(C)C)C(=O)N[C@H](C(=O)N[C@@H](CCCNC(=N)N)C(=O)NCC(=O)N[C@@H](CCCNC(=N)N)C(=O)N[C@@H](CCCCNC(=O)COCCOCCNC(=O)COCCOCCNC(=O)CC[C@H](NC(=O)CCCCCCCCCCCCCCCCC(=O)O)C(=O)O)C(=O)O)C(C)C [Example 5] (H-H[Aib]EGTFTSDVSK([AEEA-AEEA-γGlu-C18 diacid])YLEEQAARK([AEEA-AEEA-γGlu-C18 diacid])FIAWLVRGRK([AEEA-AEEA-γGlu-C18 diacid])-OH; N-terminus and C-terminus assumed)
> 1	–	CC[C@H](C)[C@H](NC(=O)[C@H](Cc1ccccc1)NC(=O)[C@H](CCC(=O)O)NC(=O)[C@H](CCCCNC(=O)[C@@H](N)CCCCNC(=O)COCCOCCNC(=O)COCCOCCNC(=O)CC[C@H](NC(=O)CCCCCCCCCCCCCCCCC(=O)O)C(=O)O)NC(=O)[C@H](C)NC(=O)[C@H](C)NC(=O)[C@H](CCC(N)=O)NC(=O)[C@H](CCC(=O)O)NC(=O)[C@H](CCC(=O)O)NC(=O)[C@H](CC(C)C)NC(=O)[C@H](Cc1ccc(O)cc1)NC(=O)[C@H](CO)NC(=O)[C@H](CO)NC(=O)[C@@H](NC(=O)[C@H](CC(=O)O)NC(=O)[C@H](CO)NC(=O)[C@@H](NC(=O)[C@H](Cc1ccccc1)NC(=O)[C@@H](NC(=O)CNC(=O)[C@H](CCC(=O)O)NC(=O)C(C)(C)NC(=O)[C@@H](N)Cc1c[nH]cn1)[C@@H](C)O)[C@@H](C)O)C(C)C)C(=O)N[C@@H](CCCCNC(=O)[C@@H](N)CCCCNC(=O)COCCOCCNC(=O)COCCOCCNC(=O)CC[C@H](NC(=O)CCCCCCCCCCCCCCCCC(=O)O)C(=O)O)C(=O)N[C@@H](Cc1c[nH]c2ccccc12)C(=O)N[C@@H](CC(C)C)C(=O)N[C@H](C(=O)N[C@@H](CCCNC(=N)N)C(=O)NCC(=O)N[C@@H](CCCNC(=N)N)C(=O)N[C@@H](CCCCNC(=O)[C@@H](N)CCCCNC(=O)COCCOCCNC(=O)COCCOCCNC(=O)CC[C@H](NC(=O)CCCCCCCCCCCCCCCCC(=O)O)C(=O)O)C(=O)O)C(C)C [Example 11] (H-H[Aib]EGTFTSDVSSYLEEQAAK([εLys-AEEA-AEEA-γGlu-C18 diacid])EFIK([εLys-AEEA-AEEA-γGlu-C18 diacid])WLVRGRK([εLys-AEEA-AEEA-γGlu-C18 diacid])-OH; N-terminus and C-terminus assumed)
–	111	CC[C@H](C)[C@H](NC(=O)[C@H](Cc1ccccc1)NC(=O)[C@H](CCC(=O)O)NC(=O)[C@H](CCCCNC(=O)[C@@H](N)CCCCNC(=O)COCCOCCNC(=O)COCCOCCNC(=O)[C@H](CS(=O)(=O)O)NC(=O)CCCCCCCCCCCCCCCS(=O)(=O)O)NC(=O)[C@H](C)NC(=O)[C@H](C)NC(=O)[C@H](CCC(N)=O)NC(=O)[C@H](CCC(=O)O)NC(=O)[C@H](CCC(=O)O)NC(=O)[C@H](CC(C)C)NC(=O)[C@H](Cc1ccc(O)cc1)NC(=O)[C@H](CO)NC(=O)[C@H](CO)NC(=O)[C@@H](NC(=O)[C@H](CC(=O)O)NC(=O)[C@H](CO)NC(=O)[C@@H](NC(=O)[C@H](Cc1ccccc1)NC(=O)[C@@H](NC(=O)CNC(=O)[C@H](CCC(=O)O)NC(=O)C(C)(C)NC(=O)[C@@H](N)Cc1c[nH]cn1)[C@@H](C)O)[C@@H](C)O)C(C)C)C(=O)N[C@@H](CCCCNC(=O)[C@@H](N)CCCCNC(=O)COCCOCCNC(=O)COCCOCCNC(=O)[C@H](CS(=O)(=O)O)NC(=O)CCCCCCCCCCCCCCCS(=O)(=O)O)C(=O)N[C@@H](Cc1c[nH]c2ccccc12)C(=O)N[C@@H](CC(C)C)C(=O)N[C@H](C(=O)N[C@@H](CCCNC(=N)N)C(=O)NCC(=O)N[C@@H](CCCNC(=N)N)C(=O)N[C@@H](CCCCNC(=O)[C@@H](N)CCCCNC(=O)COCCOCCNC(=O)COCCOCCNC(=O)[C@H](CS(=O)(=O)O)NC(=O)CCCCCCCCCCCCCCCS(=O)(=O)O)C(=O)O)C(C)C [Example 12]
0.1	–	CC[C@H](C)[C@H](NC(=O)[C@H](Cc1ccccc1)NC(=O)[C@H](CCC(=O)O)NC(=O)[C@H](CCCNC(=N)N)NC(=O)[C@H](C)NC(=O)[C@H](C)NC(=O)[C@H](CCC(N)=O)NC(=O)[C@H](CCCCNC(=O)COCCOCCNC(=O)COCCOCCNC(=O)COCCOCCNC(=O)COCCOCCNC(=O)COCCOCCNC(=O)[C@@H](N)CCCCNC(=O)[C@@H](N)CCCCNC(=O)CCCCCNC(=O)CCCCCCCCCCCCCCCS(=O)(=O)O)NC(=O)[C@H](CCC(=O)O)NC(=O)[C@H](CC(C)C)NC(=O)[C@H](Cc1ccc(O)cc1)NC(=O)[C@H](CCCCNC(=O)COCCOCCNC(=O)COCCOCCNC(=O)COCCOCCNC(=O)COCCOCCNC(=O)COCCOCCNC(=O)[C@@H](N)CCCCNC(=O)[C@@H](N)CCCCNC(=O)CCCCCNC(=O)CCCCCCCCCCCCCCCS(=O)(=O)O)NC(=O)[C@H](CO)NC(=O)[C@@H](NC(=O)[C@H](CC(=O)O)NC(=O)[C@H](CO)NC(=O)[C@@H](NC(=O)[C@H](Cc1ccccc1)NC(=O)[C@@H](NC(=O)CNC(=O)[C@H](CCC(=O)O)NC(=O)C(C)(C)NC(=O)[C@@H](N)Cc1c[nH]cn1)[C@@H](C)O)[C@@H](C)O)C(C)C)C(=O)N[C@@H](CCCCNC(=O)COCCOCCNC(=O)COCCOCCNC(=O)COCCOCCNC(=O)COCCOCCNC(=O)COCCOCCNC(=O)[C@@H](N)CCCCNC(=O)[C@@H](N)CCCCNC(=O)CCCCCNC(=O)CCCCCCCCCCCCCCCS(=O)(=O)O)C(=O)N[C@@H](Cc1c[nH]c2ccccc12)C(=O)N[C@@H](CC(C)C)C(=O)N[C@H](C(=O)N[C@@H](CCCNC(=N)N)C(=O)NCC(=O)N[C@@H](CCCNC(=N)N)C(=O)NCC(=O)O)C(C)C [Example 20]
